Results as given in PMC9598318, “Latent Tuberculosis: A Promising New Compound to Treat Non-Replicating and Intramacrophagic Mycobacteria” (Biomedicines, 2022).
In brackets after ≈: the same amount, converted by molar mass. Several values for one entry are separate records, joined by “and”; a condition that tells them apart may be missing. Identical values can stand only once. Like-named read-outs stand apart in the source and are kept apart here.

How the values were obtained:
[1] = tested on: Salmonella Typhimurium (ATCC 14028); assay: Activity spectrum, microdilution; assay type: cell-based; settings: 24 h, absorbance 600 nm
[2] = tested on: Pseudomonas aeruginosa (ATCC 13388); assay: Activity spectrum, microdilution; assay type: cell-based; settings: 24 h, absorbance 600 nm
[3] = tested on: Staphylococcus aureus (ATCC 6538); assay: Activity spectrum, microdilution; assay type: cell-based; settings: 24 h, absorbance 600 nm
[4] = tested on: Escherichia coli (ATCC 11775); assay: Activity spectrum, microdilution; assay type: cell-based; settings: 24 h, absorbance 600 nm
[5] = tested on: intramacrophagic M. tuberculosis H37Rv; assay: Intramacrophagic activity (J774A.1 macrophages infected with M. tuberculosis H37Rv, CFU count); assay type: cell-based, Mycobacterium tuberculosis; settings: 5× MIC (6.15 μM), 3 days of exposure
[6] = tested on: MRC-5 (ATCC CCL-171) cells
[7] = tested on: Mycobacterium smegmatis mc2155 (ATCC 700084); assay: MIC90 against M. smegmatis (resazurin); assay type: cell-based; settings: for Spectrum activity, M. smegmatis: 2 days, resazurin
[8] = tested on: MRC-5 (ATCC CCL-171) cells; assay: cells; settings: Homo sapiens
[9] = tested on: J774A.1 (ATCC TIB-67) cells; assay: Cytotoxicity against macrophage cells (resazurin); assay type: cell-based, mice; settings: for IC50: Mus musculus
[10] = tested on: Mycobacterium tuberculosis H37Rv (ATCC 27294), replicating; assay: MIC90 against replicating M. tuberculosis (resazurin microtiter assay, REMA); assay type: cell-based; settings: 7 days; for MIC90: Mycobacterium tuberculosis, 168 h
[11] = tested on: non-replicating (NRP) M. tuberculosis; assay: LORA, MIC90 against non-replicating M. tuberculosis; assay type: cell-based, Mycobacterium tuberculosis
Method: The LORA method was used to determine the MIC90 of compounds against latent/non-replicating (NRP) mycobacteria. According to Wayne and Sohaskey (2001) [18], under a low-oxygen atmosphere, NRP mycobacteria, containing the plasmid pFCA-ABCDE that encodes a luminescent protein in aerated environments, were plated in a 96-well plate with 100 mL of compounds in a range of 0.39 to 100 μg/mL.

[12] = tested on: latent tuberculosis infection (LTBI); settings: cited from earlier work; for Efficacy in preventing progression to active tuberculosis infection: LTBI patients, monotherapy, ref Huaman et al. (2019) [28]
[13] = tested on: M. tuberculosis; assay: Time-kill curve; assay type: cell-based, Mycobacterium tuberculosis; settings: MIC and 2× MIC, 15 days
[14] = J774A.1 ATCC TIB-67, 24 h, J774A.1, 24 h
[15] = J774A.1 ATCC TIB-67, 48 h, J774A.1, 48 h
[16] = J774A.1 ATCC TIB-67, 72 h, J774A.1, 72 h
[17] = Mycobacterium tuberculosis, LORA, low-oxygen

| SMILES | Spectrum activity, S. typhimurium [1] | Spectrum activity, P. aeruginosa [2] | Spectrum activity, S. aureus [3] | Spectrum activity, E. coli [4] | Spectrum activity, M. smegmatis [7] | IC50 ([8]; MRC5, 24 h) | IC50 ([8]; MRC5, 48 h) | IC50 ([8]; MRC5, 72 h) | IC50 [9, 14] | IC50 [9, 15] | IC50 [9, 16] | MIC90 [10] | MIC90 [11, 17] | Efficacy in preventing progression to active tuberculosis infection [12] | death profile in time-kill curve (bactericidal = 3 log10 CFU/mL decrease) [13] | other results |
| --- | --- | --- | --- | --- | --- | --- | --- | --- | --- | --- | --- | --- | --- | --- | --- | --- |
| CNC(C)C1CCC(N)C(OC2C(N)CC(N)C(OC3OCC(C)(O)C(NC)C3O)C2O)O1 (stereo not drawn) [Gentamicin] | 1.16 ± 0.38 µg/mL | 2.02 ± 0.66 µg/mL | 3.97 ± 2.35 µg/mL | 5.07 ± 0.14 µg/mL | – | – | – | – | – | – | – | – | – | – | – | – |
| CC1=NN(C(=O)c2ccncc2)C(O)(c2ccccc2)C1 (stereo not drawn) [Hydrazone 14] | >100 µg/mL | >100 µg/mL | >100 µg/mL | >100 µg/mL | >25.0 µg/mL | > 100 µg/mL | > 100 µg/mL | > 100 µg/mL | > 100 µg/mL | 83.3 ± 28.9 µg/mL (≈ 296 µM) | 81.8 ± 31.5 µg/mL (≈ 291 µM) | 1.23 µM and 0.35 µg/mL | 6.31 µM and 1.77 µg/mL | – | – | intramacrophagic inhibition (log reduction vs untreated) [5]: 0.5 log10 CFU/mL; cytotoxicity [6]: no detectable cytotoxicity; IS (selectivity index) ([6]; IC50/MIC90, MRC-5, 24 h): >289.02; IS (selectivity index) ([6]; IC50/MIC90, MRC-5, 48 h): >289.02; IS (selectivity index) ([6]; IC50/MIC90, MRC-5, 72 h): >289.02; growth inhibition of M. smegmatis [7]: unable to inhibit the mycobacteria growth; IS (selectivity index) ([9]; IC50/MIC90, J774A.1, 24 h): >289.02; IS (selectivity index) ([9]; IC50/MIC90, J774A.1, 48 h): 240.88; IS (selectivity index) ([9]; IC50/MIC90, J774A.1, 72 h): 236.46; MIC90 Replicating [10]: 1.23 ± 0.53 µM (≈ 0.346 µg/mL); MIC90 Non-Replicating ([11]; LORA, low-oxygen): 6.31 ± 5.72 µM (≈ 1.78 µg/mL) |
| NNC(=O)c1ccncc1 [Isoniazid] | – | – | – | – | – | > 100 µg/mL | > 100 µg/mL | > 100 µg/mL | > 100 µg/mL | > 100 µg/mL | > 100 µg/mL | 0.44 µM and 0.06 µg/mL | > 300 µM and > 45 µg/mL | 90% | bacteriostatic | IS (selectivity index) [6]: >1666.66; IS (selectivity index) [9]: >1666.66; TB activation after LTBI treatment ([12]; share of cases, INH monotherapy): 10%; inhibition of non-replicating bacteria ([11]; LORA assay): non-inhibition; MIC90 ([11]; LORA, low-oxygen): >328.13 µM |
| CO[C@H]1/C=C/O[C@@]2(C)Oc3c(C)c(O)c4c(O)c(c(/C=N/N5CCN(C)CC5)c(O)c4c3C2=O)NC(=O)/C(C)=C\C=C\[C@H](C)[C@H](O)[C@@H](C)[C@@H](O)[C@@H](C)[C@H](OC(C)=O)[C@@H]1C [Rifampicin] | – | – | – | – | 2.4 ± 1.5 µg/mL | – | – | – | – | – | – | 0.05 µM and 0.04 µg/mL | < 0.36 µM and < 0.3 µg/mL | ~90% | bacteriostatic | – |
